The data set in a line: recombinant UMI read abundance after kanamycin selection (control-corrected) (log10(CPM+1)); higher = more efficient recombination; extreme values may be limits of the assay; sequences stand for … in AGTGCAGAGAAAATCGGCCAGTTTTCTCTGCCTGCAGTCCGCATGCCGTGGGACCCCTTGGGTTCTAACCTGTTGCCTAGATTTATGCAGCGGACTGCCTTTCTCCCAAAGTGATAAACCGG…AGGTTGGTTTCACT; site = the 11-nt donor. The procedure, abridged:
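In a pooled Escherichia coli screen for the IS621 bridge recombinase, donor and donor-binding-loop pairs were each placed with a 12-nt UMI on a plasmid bearing a promoterless kanamycin gene. This library was co-electroporated with a target plasmid encoding a fixed target and T7-inducible recombinase, and cells were plated either on IPTG (0.07 mM) plus kanamycin or without selection, in two replicates each. Recombinant UMIs were PCR-amplified across the donor–target junction and sequenced, and counts were converted to CPM, averaged over replicates, scaled by control-derived factors and reported as log10(CPM+1).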
Turning to “AGAGTATCATGGACCGGTTTTCCCGGTAATCCGTATTTGCA (site AAAGTATCTTG)”, the “recombinant UMI read abundance (log10)” value came out at 2.57. Take “AGAGTATCATGGACCGGTTTTCCCGGTAATCCGTATTTGCA (site ACAGTATCTTG)”: the “recombinant UMI read abundance (log10)” value came to 2.7.

For “AGAGTATCATGGACCGGTTTTCCCGGTAATCCGTATTTGCA (site AGAGTATCTTG)”, the “recombinant UMI read abundance (log10)” value was 3.29. For “AGAGTATCATGGACCGGTTTTCCCGGTAATCCGTATTTGCA (site ATAGTATCTTG)”, the “recombinant UMI read abundance (log10)” value was 1.83. With “AGAGTATCATGGACCGGTTTTCCCGGTAATCCGTATTTGCC (site ACAGTATCTTG)” the figure was 0. On to “AGAGTATCATGGACCGGTTTTCCCGGTAATCCGTATTTGCC (site AGAGTATCTGG)”, for which the “recombinant UMI read abundance (log10)” value amounted to 2.98. On to “AGAGTCACATGGACCGGTTTTCCCGGTAATCCGTATTTGAG (site AGAGTCACTCT)”, for which the “recombinant UMI read abundance (log10)” value came out at 2.34. The figure for “AGAGTGCCATGGACCGGTTTTCCCGGTAATCCGTATTTGGG (site AGAGTGCCTCC)” is 0.0257; for “AGATAATCATGGACCGGTTTTCCCGGTAATCCGTATTTGCG (site AGATAATCTCG)” it is 2.61; for “AGATAGACATGGACCGGTTTTCCCGGTAATCCGTATTTGCC (site AGATAGACTGG)” it is 3.03. As for “AGATAGACATGGACCGGTTTTCCCGGTAATCCGTATTTGCC (site CGATAGACTGG)”, the “recombinant UMI read abundance (log10)” value turned out to be 1.36.

Regarding “AGATAGACATGGACCGGTTTTCCCGGTAATCCGTATTTGCC (site GGATAGACTGG)”, the “recombinant UMI read abundance (log10)” value was found to be 1.35. Regarding “AGATAGACATGGACCGGTTTTCCCGGTAATCCGTATTTGCC (site TGATAGACTGG)”, the “recombinant UMI read abundance (log10)” value was 2.34. As to “AGATAGGCATGGACCGGTTTTCCCGGTAATCCGTATTTGCT (site AGAAAGGCTAG)”, the “recombinant UMI read abundance (log10)” value came to 0.622. The figure for “AGATAGGCATGGACCGGTTTTCCCGGTAATCCGTATTTGCT (site AGACAGGCTAG)” is 2.12; for “AGATAGGCATGGACCGGTTTTCCCGGTAATCCGTATTTGCT (site AGAGAGGCTAG)” it is 0.862; for “AGATAGGCATGGACCGGTTTTCCCGGTAATCCGTATTTGCT (site AGATAGGCTAG)” it is 2.66. With “AGATAGGCATGGACCGGTTTTCCCGGTAATCCGTATTTGTA (site AGATAGGCTTA)” the figure was 2.52. The figure for “AGATCCCCATGGACCGGTTTTCCCGGTAATCCGTATTTGTA (site AGATCCCCTTA)” is 0.595; for “AGATGAGCATGGACCGGTTTTCCCGGTAATCCGTATTTGCA (site AGATGAGCTTG)” it is 2.71; for “AGATGTTCATGGACCGGTTTTCCCGGTAATCCGTATTTGTT (site AGATGTTCTAA)” it is 1.45.

As for “AGATTAGCATGGACCGGTTTTCCCGGTAATCCGTATTTGAT (site AGATTAGCTAT)”, the “recombinant UMI read abundance (log10)” value was determined as 2.09.

Consider “AGCAACGCATGGACCGGTTTTCCCGGTAATCCGTATTTGTG (site AGCAACGCTCA)”, for which the “recombinant UMI read abundance (log10)” value was determined as 1.36. In the case of “AGCAATACATGGACCGGTTTTCCCGGTAATCCGTATTTGCA (site AGCAATACTTG)”, the “recombinant UMI read abundance (log10)” value came to 1.73. Take “AGCAATACATGGACCGGTTTTCCCGGTAATCCGTATTTGCA (site AGGAAGACTTG)”: the “recombinant UMI read abundance (log10)” value came out at 0.

For “AGCACGGCATGGACCGGTTTTCCCGGTAATCCGTATTTGCT (site AGCACGGCTAG)”, the “recombinant UMI read abundance (log10)” value was found to be 1.9.

Consider “AGCACTACATGGACCGGTTTTCCCGGTAATCCGTATTTGAC (site AGAACTACTGT)”, for which the “recombinant UMI read abundance (log10)” value amounted to 1.25. For the sequence “AGCACTACATGGACCGGTTTTCCCGGTAATCCGTATTTGAC (site AGCACTACTGT)”, the “recombinant UMI read abundance (log10)” value worked out at 1.85. Consider “AGCACTACATGGACCGGTTTTCCCGGTAATCCGTATTTGAC (site AGGACTACTGT)”, for which the “recombinant UMI read abundance (log10)” value was determined as 0.927.

The values above are taken from the supplement of paper PMC11208160.
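Also: IS621 bridge recombinase in Escherichia coli cells against a fixed T5 target plasmid.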
